According to patent US20120064044A1, “METHODS OF TREATING EDEMA RELATED TO ISCHEMIA-REPERFUSION” (priority 2009, published 2012):

Assays:
OuJ mice = test: Murine lung ischemia-reperfusion injury, edema by wet to dry weight ratio (W/D), OuJ mice; format: in vivo, mouse; design: dose or concentration left out as unconfirmed; settings: intravenously over 30 minutes (200 μL of saline) starting 60 minutes before left hilar clamping, FIG. 5A
Description: (§1) Mice were anesthetized with ketamine (0.1 mg/gm body weight) and xylazine (0.01 mg/gm) interperitoneally, followed by one-third of the initial dose hourly. Tracheotomy allowed mechanical ventilation (with a tidal volume of 0.4 mL, respiratory rate 120/min, I/E 0.4, PEEP 3 cm H2O, FiO2, 1.0) using a Columbus Instruments Ventilator CIV-101 (Columbus Instruments, Columbus, Ohio, United States of America). The right jugular vein was cannulated for infusion of albumin 2.5% in 0.9% saline, 450 μL/hour by syringe pump (Medfusion 2010i; Medex, Carlsbad, California, United States of America) to maintain hydration. Rectal temperature was monitored and maintained with a heating pad. The left pulmonary hilum was occluded for 1 hour with a microvascular clamp through a left thoracotomy. Reperfusion began with removal of the clamp. Animals were sacrificed at intervals ranging from 15 minutes to 3 hours by cardiectomy, and both lungs were excised. The apical portion of each lung was excised and immediately weighed, then desiccated in a 60° C. oven for 48 hours and re-weighed to determine wet to dry weight ratio (W/D). Remaining lung tissue was flash frozen in liquid nitrogen and stored at −80° C. Lungs excised immediately after sacrifice served as controls.

C57BL/6J mice = test: Murine lung ischemia-reperfusion injury, edema by wet to dry weight ratio (W/D), C57BL/6J mice; format: in vivo, mouse; settings: BL6 mice; 10 μg over 30 minutes starting 60 min prior to left hilar clamping for 1 hour; FIGS. 7A and 7B
Description: as §1
A further study was performed to compare the effects of pre-treatment with a TLR4 inhibitor. […]

NF-κB activation [1] = test: NF-κB reporter assay (fluc/β-gal) in HMVECs stimulated with LPS or TNF; format: cell-based, human; settings: FIG. 5B
Description: FIG. 5B is a bar graph showing the in vitro inhibition of NF-κB activation (based on firefly luciferase (fluc)/β-galactosidase (β-gal) activity) effected by 0.1, 1, 10, and 100 μg concentrations (i.e., Inhib 0.1, Inhib 1, Inhib 10, Inhib 100, respectively) of CRX-526. Fluc/β-gal was measured following stimulation of CRX-526-treated human pulmonary microvascular endothelial cells (HMVECs) with phosphate buffered saline (PBS) only (open bars), 10 ng/mL lipopolysaccharide (LPS) (spotted bars), 5 ng/mL LPS (striped bars), or 0.25 ng/mL tumor necrosis factor (TNF, darkly shaded bars). HMVECs that had not been treated with CRX-526 were used as a control. n=4/group, *p<0.05 compared to other values at same time point by ANOVA.
(§2) Recombinant, first generation E1, E3-deleted adenovirus serotype 5 vectors were prepared (see Sanlioglu et al., J. Biol. Chem., 276, 30188-30198 (2001)) and HMVECs and AMs were transfected as previously described for epithelial cells. See Wu et al., Respir. Res., 6, 26 (2005).

[2] = test system: NF-κB activation mediated through stimulation by Toll-like receptor 2 (TLR2) ligands; test: NF-κB reporter assay (fluc/β-gal) in HMVECs stimulated with TLR2 ligands; format: cell-based, human; settings: transfected HMVECs pretreated 1 hour; Pam(3)Cys 25 μg/mL or LTA 1 μg/mL for 8 hours; FIG. 8
Description: FIG. 8 is a bar graph showing the effects of CRX-526 on NF-κB activation mediated through stimulation by Toll-like receptor 2 (TLR2) ligands. Human pulmonary microvascular endothelial cells (HMVECs) were transfected with recombinant first-generation E1, E3-deleted Ad.NF-κB-luciferase and consituitive β-galactosidase vectors so that when NF-κB is activated, the ratio of firefly luciferase (fluc)/β-galactosidase (β-gal) increases. Forty eight hours after transfection, the HMVECs were pretreated for 1 hour with various concentrations of CRX-526 (as shown on the x-axis) and exposed to TLR2 ligands Pam(3)Cys (25 μg/mL, darkly shaded bars) or lipoteichoic acid (LTA; 1 μg/mL, open bars) for 8 hours. Luciferase activity is normalized to β-galactosidase to control for infection efficiency.
as §2

NF-κB activation [3] = test: NF-κB reporter assay (fluc/β-gal) in alveolar macrophages; format: cell-based, mouse; settings: 1 μg/mL LPS; native OuJ AMs and AMs from chimeric strain P-M+; FIG. 4A
Description: FIG. 4A is a bar graph of NF-κB activation (as measured by firefly luciferase (fluc)/β-galactosidase (β-gal) activity) in alveolar macrophages (AMs) from chimeric mice twelve weeks following bone marrow transplant. The AMs were retrieved by bronchoalveolar lavage (BAL) and infected with Ad.NFκBLuc and Ad.CMV-LacZ, then incubated with either phosphate buffered saline (PBS; open bars) or 1 μg/mL lipopolysaccharide (LPS, darkly shaded bars). The observed firefly luciferase/β-galactosidase activity indicated complete replacement of recipient marrow from either chimeric HeJ strain (P+M−) or chimeric OuJ strain (P−M+). P=parenchymal cells, M=marrow-derived cells, +=intact TLR4 (OuJ), −=non-functional TLR4 (HeJ). AMs retrieved from non-irradiated HeJ and OuJ mice served as controls. n=4 experiments/group, p<0.0001.
AMs from HeJ and OuJ mice were harvested by BAL 120 days after BMT. The trachea was cannulated with a tailored 18 gauge catheter (Becton Dickinson, Sandy, Utah, United States of America). BAL was performed by slow tracheal delivery of 4 aliquots (35 μL×body weight in grams) of pre-warmed, sterile, endotoxin-, calcium-, and magnesium-free PBS with 0.2 mM EGTA. Lavage fluid was withdrawn by gentle suction, pooled for each mouse, and centrifuged at 250 g for 5 minutes. […]

For `CCCCCCCCCCC[C@H](CC(=O)N[C@H]1[C@H](OC[C@H](NC(=O)C[C@@H](CCCCCCCCCCC)OC(=O)CCCCC)C(=O)O)O[C@H](CO)[C@@H](OP(=O)(O)O)[C@@H]1OC(=O)C[C@@H](CCCCCCCCCCC)OC(=O)CCCCC)OC(=O)CCCCC` [CRX-526], which “edema (W/D) following 1 hour of ischemia-reperfusion” value (OuJ mice) is on record?
Its value is “prevented edema”.

What about the “edema (W/D) for up to 180 min of reperfusion” value (C57BL/6J mice) of the same compound?
Its value is “little if any edema”.

And the “TNF stimulation of NF-κB activation” value (NF-κB activation [1]; HMVECs, 0.25 ng/mL TNF)?
Its value is “no impact”.

And the “NF-κB activation in HMVECs exposed to LPS” value (NF-κB activation [1]; LPS 10 or 5 ng/mL, CRX-526 0.1, 1, 10, 100 μg)?
The value was “prevented NF-κB activation”.

And the “NF-κB activation stimulated by TLR2 ligands” value [2]?
The value was “reduced NF-κB activation”.

Which “increase in luciferase activity” value (NF-κB activation [3]) does the source give for lipopolysaccharide [LPS] here?
The value was “approximately 60 fold”.
